Experimental data as given in publication PMC11123692, “Sugar-Based Surfactants: Effects of Structural Features on the Physicochemical Properties of Sugar Esters and Their Comparison to Commercial Octyl Glycosides” (Molecules, 2024).
Values after ≈ are worked out from the molar mass of the structure shown. Values joined by “and” are separate entries in the source; they are usually repeats but may differ in a detail not shown here. Identical values can stand only once. Like-named read-outs stand apart in the source and are kept apart here.

Key:
[1] = cited from earlier work; for CMC / γcmc: Wilhelmy plate method at 25 °C
[2] = Water solubility limit by visual examination (transparent/turbid); format: physicochemical; conditions: for solubility: thermodynamic from solid, read-out: Solubility Limit (S/mM)
From the text: Water solubility reflects the ability of a particular molecule to dissolve and its interaction with water. To characterize the water solubility of most amphiphile molecules, especially the ionic surfactants, the Krafft point (Tk) is often used, referring to the critical temperature above which micelles form or the melting point of the hydrated solid surfactant. Two general approaches were used to measure the Tks of the molecules investigated herein: (1) a visual examination of the dissolution phenomenon for binary molecule/water systems, and (2) a quantitative measurement by using differential scanning calorimetry (DSC) analysis. The visual observation procedure is detailed below. […] Consequently, molecules can be classified into two major types: those soluble in water at RT and others insoluble at RT, with the solubility limit being called S (expressed in mM). The aspect of the sample, either transparent or turbid, is determined by direct visual examination. Tk determination with DSC is particularly applicable in the case of molecules insoluble at RT, for which a concentrated binary molecule/water mixture with a mass fraction of 20% of each molecule (C >> CMC in most cases) was prepared at 65 °C under stirring for 30 min to obtain a homogeneous system. These pre-homogenized aqueous systems were cooled and conserved in a refrigerator at 4 °C for a suitable period (>7 days), during which equilibrated hydrated crystals formed and precipitated. Then, for each molecule, about a 200–400 mg crystal sample was taken and put into the calorimeter cell. The first equilibrium phase was programmed at 4 °C for 1 h, followed by a slow heating stage from 4 °C to 65 °C at a rate of 0.5 °C/min. Tk was determined based on the location of the endothermic peak on the DSC curve, if any. All agitations were performed using a standard magnetic hotplate stirrer, MR 3001K (Heidolph Instruments, Schwabach, Germany). DSC curves were obtained from a commercial µDSC7 evo calorimeter (SETARAM Instrumentation, Caluire-et-Cuire, France). Tks are reported as the averages of at least two measurements as well as their standard deviations.

[3] = Equilibrium surface tension, Wilhelmy plate method (CMC, γcmc, Amin and derived quantities); format: physicochemical; conditions: for Amin: from Gibbs adsorption equation
Experimental: CMCs are determined from the inflections in the plots of equilibrium surface tension against the logarithm of the concentration. For the interested reader, the Gibbs-free energy of micellization, ΔGmic, the Gibbs-free energy of adsorption, ΔGads, and the efficiency of surfactant adsorption pC20 were calculated based on their definitions, as presented in Table 2.
The surface activity reflects the amphiphiles’ adsorption behavior on the air–aqueous solution interface. The surface tension (γ) was obtained using the Wilhelmy plate method with a K100 Processor Tensiometer (KRUSS, Hamburg, Germany). Both the critical micellar concentration (CMC) and equilibrium surface tension at the CMC (γcmc) were derived from the typical plot of surface tension (γ) against the logarithm of concentration (Log C). The surface excess (Γmax) and minimal area per molecule at the air–aqueous solution interface (Amin) at different temperatures were calculated from the Gibbs adsorption equation [3, 46]:(2) Γmax=−1/2.303RT(dγ/dlogc) and (3) Amin=10^20/NAΓmax where R is the ideal gas constant, 8.31 J∙mol^−1∙K^−1; T is the measuring temperature, K; γ is the surface tension, N/m; c is the concentration, mol.L^−1; Amin is the minimal area per molecule, Å^2, and NA is Avogadro’s number, 6.022·10^23 mol^−1.
For each molecule, several solutions of a wide range of concentrations were prepared. Before measuring, each solution was finely homogenized with the help of a magnetic stirring bar. The stirring time was fixed at 30 min in all cases. […] Then, measurements were performed once for each concentration, at the solution preparation’s temperature, with an uncertainty of ±1 °C.

[4] = Precipitation on cooling previously heated 50 mM aqueous solutions; format: physicochemical; conditions: 50 mM in water
Experimental: For commercial alkyl glucosides, the Tk decreases in the following sequence: C8αGlc > C8βGal >> C8βGlc ≈ C8αGal. […] The obtained Tk for C8αGlc is around 40 °C in accordance with previously published values. However, as determined by the same experimental protocol, the Tk for C8βGal is about 29 °C, much lower than 42 °C derived from the phase diagram reported by Sakya et al. A possible explanation is that Sakya et al. synthesized and purified C8βGal by themselves, whereas we carried our measurements on commercially purchased C8βGal. […] For this reason, we assume that many researchers have been able to investigate their aqueous solutions at 25 °C, as mentioned in the introduction. In addition, when cooling the previously heated solutions with the same molecular concentration of 50 mM, we noted that C8αGlc precipitated much faster than C8βGal. […] This may, to some extent, be explained by a more favorable crystal structure for C8αGlc than C8βGal. With regard to C8αGal, which is presented in commercial samples as a highly viscous liquid, we expect it to have the weakest crystal structure and a very low Tk value. However, our experimental methods cannot give its exact Tk. […]

[5] = set-up: method as in doi:10.1039/C4MD00122B; conditions: ITC at 25 °C; cited from earlier work
[6] = Krafft temperature (Tk) by visual examination and DSC of molecule/water systems; format: physicochemical; conditions: in water; observation and DSC; average ± SD of at least two measurements
From the text: Water solubility reflects the ability of a particular molecule to dissolve and its interaction with water. To characterize the water solubility of most amphiphile molecules, especially the ionic surfactants, the Krafft point (Tk) is often used, referring to the critical temperature above which micelles form or the melting point of the hydrated solid surfactant. Two general approaches were used to measure the Tks of the molecules investigated herein: (1) a visual examination of the dissolution phenomenon for binary molecule/water systems, and (2) a quantitative measurement by using differential scanning calorimetry (DSC) analysis. The visual observation procedure is detailed below. We start with adding the molecule into 5–50 mL water, in a concentration range between 10^−2 mM and 10^3 mM (corresponding to a range of a surfactant mass concentration well below 20%), keeping the suspension under stirring for a certain time at room temperature (RT). Consequently, molecules can be classified into two major types: those soluble in water at RT and others insoluble at RT, with the solubility limit being called S (expressed in mM). The aspect of the sample, either transparent or turbid, is determined by direct visual examination. Tk determination with DSC is particularly applicable in the case of molecules insoluble at RT, for which a concentrated binary molecule/water mixture with a mass fraction of 20% of each molecule (C >> CMC in most cases) was prepared at 65 °C under stirring for 30 min to obtain a homogeneous system. These pre-homogenized aqueous systems were cooled and conserved in a refrigerator at 4 °C for a suitable period (>7 days), during which equilibrated hydrated crystals formed and precipitated. Then, for each molecule, about a 200–400 mg crystal sample was taken and put into the calorimeter cell. The first equilibrium phase was programmed at 4 °C for 1 h, followed by a slow heating stage from 4 °C to 65 °C at a rate of 0.5 °C/min. Tk was determined based on the location of the endothermic peak on the DSC curve, if any. All agitations were performed using a standard magnetic hotplate stirrer, MR 3001K (Heidolph Instruments, Schwabach, Germany). DSC curves were obtained from a commercial µDSC7 evo calorimeter (SETARAM Instrumentation, Caluire-et-Cuire, France). Tks are reported as the averages of at least two measurements as well as their standard deviations.

[7] = cited from earlier work

SMILES | CMC [1] | γcmc [1] | solubility ([2]; water, water, at T > Tk) | precipitation when cooling the previously heated solution [4] | solubility ([2]; water, water, at RT) | C20 ([3]; T = 25 °C) | pC20 ([3]; T = 25 °C) | ΔGads ([3]; T = 25 °C) | ΔGmic ([3]; T = 25 °C) | CMC ([3]; T = 25 °C (T > Tk)) | γcmc ([3]; T = 25 °C (T > Tk)) | Amin ([3]; T = 25 °C) | CMC [5] | further results
CCCCCCCCO[C@H]1O[C@H](CO)[C@@H](O)[C@H](O)[C@H]1O [Molecule C8αGlc, Octyl α-D-glucopyranoside, reference compound] | 12 mM | 30.5 mN/m | > 100 mM | within an hour |  |  |  |  |  |  |  |  |  | Solubility Limit (S/mM) ([2]; water, at RT): insoluble; C20 ([3]; T = 50 °C): 2.8 mM; pC20 ([3]; T = 50 °C): 2.6; ΔGads ([3]; T = 50 °C): -7.0 kcal/mol; ΔGmic ([3]; T = 50 °C): -4.7 kcal/mol; CMC ([3]; T = 50 °C (T > Tk)): 15.5 mM and 15.5 ± 0.5 mM; γcmc ([3]; T = 50 °C (T > Tk)): 30.7 mN/m and 30.7 ± 0.3 mN/m; Amin ([3]; T = 50 °C): 43 ± 1.8 Å^2/molecule
CCCCCCCCO[C@H]1O[C@H](CO)[C@H](O)[C@H](O)[C@H]1O [Molecule C8αGal, Octyl α-D-galactopyranoside, reference compound] |  |  |  |  | > 100 mM | 3.8 mM | 2.4 | -6.4 kcal/mol | -3.6 kcal/mol | 51.7 mM and 51.7 ± 1.5 mM | 29.5 ± 0.2 mN/m | 45.8 ± 0.9 Å^2/molecule | 30.2 ± 0.4 mM | Tk (Krafft temperature) [6]: <4 °C
CCCCCCCCO[C@@H]1O[C@H](CO)[C@H](O)[C@H](O)[C@H]1O [Molecule C8βGal, octyl β-D-galactopyranoside, reference compound] | 16 mM | 30.5 mN/m | > 100 mM | no change was observed over one month | 10 to 20 mM (≈ 2.92 to 5.85 mg/mL) |  |  |  |  |  |  |  | 31.7 ± 0.7 mM | Tk ([7]; derived from the phase diagram of Sakya et al.): 42 °C; aspect of solution ([2]; 20 mM in water at room temperature): nearly transparent; C20 ([3]; T = 40 °C): 3.2 mM; pC20 ([3]; T = 40 °C): 2.5; ΔGads ([3]; T = 40 °C): -7.1 kcal/mol; ΔGmic ([3]; T = 40 °C): -4.4 kcal/mol; CMC ([3]; T = 40 °C (T > Tk)): 20 mM and 20 ± 1 mM; γcmc ([3]; T = 40 °C (T > Tk)): 28.5 mN/m and 28.5 ± 0.5 mN/m; Amin ([3]; T = 40 °C): 46.3 ± 1.7 Å^2/molecule
CCCCCCCCO[C@@H]1O[C@H](CO)[C@@H](O)[C@H](O)[C@H]1O [Molecule C8βGlc, octyl β-D-glucopyranoside, reference compound] |  |  |  |  | > 100 mM | 2.7 mM | 2.6 | -6.4 kcal/mol | -4.1 kcal/mol | 21.2 mM and 21.2 ± 0.8 mM | 31.0 ± 0.15 mN/m | 38.5 ± 1.9 Å^2/molecule |  | Amin ([1]; ref 23): 38 Å^2/molecule; Amin ([1]; ref 46): 42 Å^2/molecule; solubility relative to octyl-α-D-glucoside (C8αGlc) ([7]; ref 25): about seven times larger
